Data from patent US20260184750A1, “CONJUGATE COMPRISING PEPTIDE OF NOVEL SEQUENCE AND GLYCYRRHIZIN, AND PHARMACEUTICAL COMPOSITION FOR PREVENTING OR TREATING OBESITY COMPRISING SAME” (IUCF-HYU (INDUSTRY-UNIVERSITY COOPERATION FOUNDATION …, priority 2022, published 2026).
Where two headings read alike, the source gives them in different places. No end group written: not given here.

Legend:
[1] = test system: obese adipocytes (FFA-treated mature 3T3-L1 cells); experiment: Anti-hypertrophic effect in obese adipocytes (Oil Red O); format: cell-based
Experimental: To induce obesity in adipocytes at the cell experiment level, cells were treated with saturated fatty acids, and the process of inducing obese adipocytes and performing the experiment at the cell experiment level are shown in FIG. 16. Specifically, a saturated fatty acid (free fatty-acid) (FFA, palmitic acid) was dissolved in a 2% w/v bovine serum albumin (BSA) and 0.5% ethanol DMEM solution to a concentration of 500 μM. After treating with FFA for three days, the cells were washed, subjected to an Oil Red O staining solution process, and then the amount of accumulated fatty acids was measured through the absorbance at 510 nm. The results are shown in FIG. 17, and it was confirmed even through qualitative observation that the size of single fat droplets was very different. […]
The anti-hypertrophy effect of GL derivatives in obesity-induced adipocytes according to the concentration was confirmed at the cell experiment level. […] The amount of fatty acids accumulated inside the cells was measured through the Oil Red O staining process on day 18 of differentiation. […]
It was confirmed whether the anti-hypertrophic effect according to the expected mechanism of GL derivatives differed depending on the fatty acid treatment method. […] On day 18 of differentiation, the amount of fatty acids accumulated inside the cells was measured through the Oil Red O staining process.

[2] = Pharmacokinetics: blood residual concentration after intraperitoneal injection; format: in vivo, C57BL/6J; settings: 13.5 mg/kg intraperitoneal
Experimental: The pharmacokinetic indices were calculated by measuring the blood residual concentrations of GL derivatives. Specifically, GL and GL-PEG-AHP were injected intraperitoneally in an amount of 13.5 mg/kg into animals (C57BL/6J, 6 weeks old, 5 per cage). At each time point (0, 20, 30, 120, 240, and 480 minutes) following the intraperitoneal injection, the animals were sacrificed, and 300 μl of blood samples were obtained through the abdominal vein. The obtained blood samples were placed in EDTA tubes and centrifuged at 824×g for 30 minutes at 4° C. 50 μl of the supernatant was mixed with 100 μl of methanol, and the resulting mixture was vortexed for 10 minutes. Thereafter, centrifugation was performed again at 10,000×g for 10 minutes. 100 μl of the supernatant was mixed with 900 μl of the mobile phase, and the resulting mixture was filtered through a 0.45 μm syringe filter, and HPLC was performed (HPLC column: C8 column; mobile phase=methanol:acetonitrile:water:acetic acid=55:23.7:19.2:0.68; flow rate: 1 ml/min; injection volume: 20 μl) to measure the blood residual concentration of the drug over time. Detection was performed through UV at 245 nm.

ABCA1 = ABCA1 cell membrane expression in adipocytes treated with LXR inhibitor GSK2033; format: cell-based; settings: adipocytes treated with GL derivatives
Experimental: It was confirmed through fluorescence images whether the cell membrane expression level of ABCA1 by GL derivatives is reduced in adipocytes by GSK2033, an LXR inhibitor. […] Specifically, 4×10^4 adipocytes were seeded in a 24-well plate and treated with each group (control, GL, PEG, AHP, GL-PEG, and GL-PEG-AHP) for 24 hours on day 14 of adipocyte differentiation. The cells were fixed using 4% PFA. After washing with PBS, the cells were incubated with 10% goat serum and 0.02% Tween-20 for 30 minutes at room temperature. The cells were treated with the ABCA1 antibody (Host: rabbit, 1:300) in PBST at room temperature for two hours. After washing with PBST, the cells were treated with an FITC-labeled secondary antibody (goat-anti-rabbit, 1:500) at room temperature for one hour. After washing with PBS, the cells were treated with DAPI for one minute at room temperature, and then fluorescence images were obtained.

[3] = test system: adipocytes (mature 3T3-L1); experiment: FACS targeting ability of FITC-labeled peptides in adipocytes; format: cell-based; settings: 37° C.; for targeting ability (FACS): adipocytes (mature 3T3-L1), 1 μM FITC-labeled peptide, 30 minutes
Experimental: To conduct cell experiments in adipocytes, preadipocytes were differentiated into adipocytes. Specifically, 3T3-L1 preadipocytes were first seeded in a well plate of a size suitable for the experimental purpose, and then cultured to 80% to 90% confluence. Thereafter, the cells were treated with an adipocyte differentiation induction reagent (insulin 10 μg/ml, dexamethasone 0.4 μg/ml, 3-isobutyl-1-methylxanthine 111 μg/ml) for three days. After washing the adipocyte differentiation induction reagent with phosphate-buffered saline (PBS), the cells were treated with Dulbecco's modified eagle medium (DMEM) containing insulin (10 μg/ml) every two days, and differentiation was induced for up to 14 days to generate adipocytes. Thereafter, on day 14 of the adipocyte differentiation induction, the cells were fixed with 4% paraformaldehyde and then treated with the Oil red O staining solution for two hours. In addition, the staining solution accumulated inside the cells was eluted with isopropanol, and a microplate reader was used to verify whether fatty acids were accumulated inside the adipocytes at a wavelength of 510 nm to finally confirm the differentiation.
The targeting effect of the above-described candidate peptides was quantitatively verified in actual adipocytes and preadipocytes. Specifically, differentiated 3T3-L1 preadipocytes were treated at 37° C. for 30 minutes with 1 μM of the final FITC-labeled candidate peptides dissolved in DMEM.
After washing with PBS, cells were detached from the well plate using a trypsin-ethlyenediaminetetraacetic acid (EDTA) (0.5%) solution and centrifuged at 1100 rpm for three minutes to obtain sedimented cells. […]
The finally selected candidate peptide (adipose tissue homing peptide: AHP) (SEQ ID NO: 14: KGRRAKD) was quantitatively compared with another adipose tissue targeting sequence (adipose targeting sequence: ATS) (SEQ ID NO: 22: KGGRAKD) in adipocytes. […]

[4] = test system: adipocytes (mature 3T3-L1); experiment: Confocal fluorescence imaging of peptide binding to adipocyte outer membrane; format: cell-based; settings: 1 μM FITC-labeled peptide, 30 minutes, 37° C.
Experimental: The binding of the candidate peptides to the adipocyte outer membrane was confirmed through fluorescence imaging. Specifically, differentiated 3T3-L1 preadipocytes were treated with 1 μM of the finally selected FITC-labeled candidate peptides in Table 2 dissolved in DMEM for 30 minutes at 37° C. After washing with PBS, cell nuclei were stained using 4′6,-diamidino-2-phenylindole (DAPI). Fluorescence images were taken using a confocal microscope (green fluorescence (FITC)=488 nm, blue fluorescence (DAPI)=405 nm).

[5] = target: T1, prohibitin (PHB) on the surface of adipocytes (mature 3T3-L1) (UniProt P67778 2-272, limits assumed); experiment: FACS of FITC-labeled peptide on mature 3T3-L1 adipocytes, 30 min at 37 °C
T1 construct: whole, on cells
T1 sequence (looked up): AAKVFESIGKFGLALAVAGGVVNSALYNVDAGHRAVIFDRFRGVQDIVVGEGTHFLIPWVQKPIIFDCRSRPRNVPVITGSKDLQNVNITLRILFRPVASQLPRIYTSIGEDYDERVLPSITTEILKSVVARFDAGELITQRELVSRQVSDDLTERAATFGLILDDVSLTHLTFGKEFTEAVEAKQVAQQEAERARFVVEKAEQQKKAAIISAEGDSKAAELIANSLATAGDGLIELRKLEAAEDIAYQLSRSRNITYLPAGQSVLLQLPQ

With “GL-PEG-AHP: adipose tissue-targeting glycyrrhizin conjugate: GL amide-bonded to thiol-PEG-amine, disulfide-bonded to AHP (SEQ ID NO: 1: GKGRRAKDC) (also: glycyrrhizin-PEG conjugate, Cys9 disulfide-linked to thiol-PEG-GL)” the “difference in drug efficacy between pretreatment and co-treatment” value ([1]; anti-hypertrophic effect, Oil Red O, day 18 of differentiation) was “greatest efficacy difference”, the anti-hypertrophic effect ([1]; drug pretreatment, 25, 50, 100, 200, 400 μM, ranking between groups) was “most effective anti-hypertrophic effect” and the Cmax [2] was 75200 ng/mL. The T1/2 [2] was 3.45 h and the Tmax [2] was 0.333 h.

For `Cc1cc(C)c(S(=O)(=O)N(Cc2ccc(-c3cccc(S(C)(=O)=O)c3)cc2)Cc2ccc(C(F)(F)F)o2)c(C)c1` [GSK2033], the “expression of ABCA1 in GL derivative groups by GSK2033 treatment” value (ABCA1) was “suppressed”.

Work on `CC1(C)[C@@H](O[C@H]2O[C@H](C(=O)O)[C@@H](O)[C@H](O)[C@H]2O[C@@H]2O[C@H](C(=O)O)[C@@H](O)[C@H](O)[C@H]2O)CC[C@]2(C)[C@H]3C(=O)C=C4[C@@H]5C[C@@](C)(C(=O)O)CC[C@]5(C)CC[C@@]4(C)[C@]3(C)CC[C@@H]12` [GL, glycyrrhizin] yielded an AUC(0-t) ([2]; C57BL/6J, mouse, plasma, ip) of 114 µg·h/mL, a half-life ([2]; C57BL/6J, mouse, plasma, ip) of 3.3 h and a Cmax ([2]; C57BL/6J, mouse, plasma, ip, read-out: Cmax) of 43800 ng/mL. For the same molecule, the Tmax ([2]; C57BL/6J, mouse, plasma, ip, read-out: Tmax (converted)) was 0.333 h.

With “GRRAK: 5mer candidate peptide, SEQ ID NO: 6” the “targeting ability (FACS)” value [3] was “did not have a significant targeting ability”.

For “7mer 001: adipose tissue homing peptide, SEQ ID NO: 14: KGRRAKD; conjugated form SEQ ID NO: 1: GKGRRAKDC”, the “adipocyte targeting effect compared with ATS (FACS)” value ([3]; 1 μM FITC-labeled AHP and ATS, 30 min) was “not inferior in efficacy to ATS”, the “targeting ability (FACS)” value [3] was “most effective targeting ability” and the “adipocyte targeting ability (confocal fluorescence images)” value [4] was “best adipocyte targeting ability”.

B1: 5mer candidate peptide GRRAK, FITC-labeled (peptide)
peptide: GRRAK
modifications: also: FITC-labeled, position not given here
notes: Described as a 'working region'; also called working region GRRAK
B1: no binding (tested: 1 µM) [5].
